Consider 18 molecules from ChEMBL document CHEMBL3585308, “Discovery and Modification of in Vivo Active Nrf2 Activators with 1,2,4-Oxadiazole Core: Hits Identification and Structure-Activity Relationship Study” (J Med Chem, 2015).

Holding throughout (assay type): cell-based
Data set [1] deals with T1, Nuclear factor erythroid 2-related factor 2 (Homo sapiens) (UniProt Q16236).
T1 sequence (whole entry): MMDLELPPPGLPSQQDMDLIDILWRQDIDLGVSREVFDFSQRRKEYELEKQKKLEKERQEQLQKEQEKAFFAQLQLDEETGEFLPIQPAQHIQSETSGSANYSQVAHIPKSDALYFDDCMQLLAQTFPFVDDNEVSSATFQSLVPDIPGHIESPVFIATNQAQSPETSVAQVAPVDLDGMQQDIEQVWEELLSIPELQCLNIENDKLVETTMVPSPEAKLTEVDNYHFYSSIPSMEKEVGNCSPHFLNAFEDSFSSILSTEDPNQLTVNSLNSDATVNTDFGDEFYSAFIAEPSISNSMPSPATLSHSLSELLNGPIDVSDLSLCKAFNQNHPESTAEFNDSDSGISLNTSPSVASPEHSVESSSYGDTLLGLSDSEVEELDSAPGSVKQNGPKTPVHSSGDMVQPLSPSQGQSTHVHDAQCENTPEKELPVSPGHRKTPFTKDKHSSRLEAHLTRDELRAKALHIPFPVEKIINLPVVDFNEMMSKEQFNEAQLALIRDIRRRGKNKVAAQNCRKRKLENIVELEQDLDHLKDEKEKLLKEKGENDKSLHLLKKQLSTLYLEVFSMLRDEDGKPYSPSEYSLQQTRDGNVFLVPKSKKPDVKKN
Kind of data set: Activation of Nrf2 in human HepG2-ARE-C8 cells assessed as upregulation of ARE level at 40 uM after 12 hrs by luciferase reporter gene assay relative to control.

Data set [2] concerns the target T1, Nuclear factor erythroid 2-related factor 2 (Homo sapiens). Kind of data set: Activation of Nrf2 in human HepG2-ARE-C8 cells assessed as upregulation of ARE level at 80 uM after 12 hrs by luciferase reporter gene assay relative to control.
The target is the same in data set [3]. Kind of data set: Activation of Nrf2 in human HepG2-ARE-C8 cells assessed as upregulation of ARE level at 0.2 uM after 12 hrs by luciferase reporter gene assay relative to control. (In general: In a reporter assay the amount or activity of a reporter protein is the signal.)
Data set [4] shares this target. Kind of data set: Activation of Nrf2 in human HepG2-ARE-C8 cells assessed as upregulation of ARE level at 0.02 uM after 12 hrs by luciferase reporter gene assay relative to control.
Data set [5] shares this target. Kind of data set: Activation of Nrf2 in human HepG2-ARE-C8 cells assessed as upregulation of ARE level at 2 uM after 12 hrs by luciferase reporter gene assay relative to control.
Data set [6] has the same target. In words: Activation of Nrf2 in human HepG2-ARE-C8 cells assessed as upregulation of ARE level at 160 uM after 12 hrs by luciferase reporter gene assay relative to control.
The target is the same in data set [7]. Kind of data set: Activation of Nrf2 in human HepG2-ARE-C8 cells assessed as upregulation of ARE level at 20 uM after 12 hrs by luciferase reporter gene assay relative to control.
In data set [8] the test system is HCT-116. In words: Cytotoxicity against human HCT116 cells assessed as reduction of cell proliferation at 80 uM after 24 hrs by MTT assay. Conditions: hct-116, 24 h. In general terms: Tetrazolium dyes change colour on reduction, which living cells bring about.

For the molecule `COc1ccc(-c2nc(-c3ccc4nc[nH]c4c3)no2)cc1`, the fold change (FC) was 13 in data set [1]; 4.92 in data set [2]; 2.72 in data set [3]; 1.43 in data set [4]; 3.27 in data set [5]; 5.52 in data set [6]. The fold change (FC) in data set [7] was found to be 9.84. Also, the Activity result in data set [8] is reported as “Non-toxic”.

For the molecule `N#Cc1cccc(-c2nc(-c3ccc4nc[nH]c4c3)no2)c1`, the fold change (FC) in data set [1] is 0.91; in data set [2], 3.16; in data set [3] it was 1.36; in data set [4] it was 1.26; in data set [5] it was 1.42; in data set [6] it was 8.05. Further, in data set [7], the fold change (FC) was found to be 0.87. Further, in data set [8], the Activity result is reported as “Non-toxic”.

`Cc1ccc(-c2nc(-c3ccc4nc[nH]c4c3)no2)cc1`: the fold change (FC) in data set [1] stood at 16.6; in data set [2] it was 12.7; in data set [3], 3.29; in data set [4] it was 2.11; in data set [5] it was 7.78; in data set [6], 9.22. Also, in data set [7], the fold change (FC) was determined as 20.6. In data set [8], the Activity entry is recorded as “Non-toxic”.

Take `Cc1ccccc1-c1nc(-c2ccc3nc[nH]c3c2)no1`: the fold change (FC) in data set [1] came out at 10.8; in data set [2], 18.5; in data set [3] it was 1.59; in data set [4] it was 1.4; in data set [5], 3.52; in data set [6], 7.85. Moreover, the fold change (FC) in data set [7] worked out at 10.9. The Activity entry in data set [8] is reported as “Non-toxic”.

Consider `COc1cc(-c2nc(-c3ccc4nc[nH]c4c3)no2)cc(OC)c1OC`, for which the fold change (FC) in data set [1] was 3.24; in data set [2], 13.9; in data set [3], 2.24; in data set [4] it was 1.31; in data set [5] it was 2.41; in data set [6] it was 22.5. In data set [7], the fold change (FC) is 3.23. In addition, the Activity result in data set [8] is given as “Non-toxic”.

Turning to `Oc1ccc(-c2nc(-c3ccc4nc[nH]c4c3)no2)cc1`, the fold change (FC) in data set [1] stood at 8.67; in data set [2], 8.81; in data set [3], 1.65; in data set [4] it was 1.56; in data set [5] it was 2.19; in data set [6], 7.35. In addition, the fold change (FC) in data set [7] came to 6.23. In addition, the Activity entry in data set [8] is recorded as “Non-toxic”.

With `FC(F)(F)c1ccc(-c2nc(-c3ccc4nc[nH]c4c3)no2)cc1`, the fold change (FC) in data set [1] was determined as 21.6; in data set [2], 6.56; in data set [3], 2.85; in data set [4], 1.35; in data set [5], 6.91; in data set [6], 1.13. Moreover, in data set [7], the fold change (FC) worked out at 17.7. Also, in data set [8], the Activity entry is on record as “Non-toxic”.

On to `COc1ccccc1-c1nc(-c2ccc3nc[nH]c3c2)no1`, for which the fold change (FC) is 10.7 in data set [1]; 8.46 in data set [2]; 1.39 in data set [3]; 1.24 in data set [4]; 1.62 in data set [5]; 5.85 in data set [6]. The fold change (FC) in data set [7] is 5.96. The Activity entry in data set [8] is on record as “Non-toxic”.

Consider `Oc1cccc(-c2nc(-c3ccc4nc[nH]c4c3)no2)c1`, for which the fold change (FC) was determined as 4.18 in data set [1]; 4.05 in data set [2]; 1.71 in data set [3]; 1.68 in data set [4]; 2.44 in data set [5]; 3.93 in data set [6]. Besides, the fold change (FC) in data set [7] is 8.62. Besides, in data set [8], the Activity entry is listed as “Non-toxic”.

As for `N#Cc1ccccc1-c1nc(-c2ccc3nc[nH]c3c2)no1`, the fold change (FC) in data set [1] was determined as 1.32; in data set [2], 1.39; in data set [3], 1.48; in data set [4], 1.36; in data set [5] it was 2.46; in data set [6] it was 2.09. Also, the fold change (FC) in data set [7] is 1.33. Also, the Activity entry in data set [8] is on record as “Non-toxic”.

`CCCc1ccc(-c2nc(-c3ccc4nc[nH]c4c3)no2)cc1`: the fold change (FC) was determined as 6.16 in data set [1]; 7.79 in data set [2]; 1.73 in data set [3]; 1.48 in data set [4]; 2.25 in data set [5]; 10 in data set [6]. Further, in data set [7], the fold change (FC) was 6.07. Also, in data set [8], the Activity result is on record as “Non-toxic”.

Consider `Cn1cnc2ccc(-c3noc(-c4ccc5ccccc5c4)n3)cc21`, for which the fold change (FC) stood at 1.45 in data set [1]; 1.37 in data set [2]; 1.4 in data set [3]; 1.44 in data set [4]; 1.43 in data set [5]; 2.44 in data set [6]. The fold change (FC) in data set [7] came out at 1.39. For the same molecule, in data set [8], the Activity entry is “Non-toxic”.

Regarding `COC(=O)/C=C/C(=O)OC`, the fold change (FC) in data set [1] was determined as 2.97; in data set [3] it was 1; in data set [4], 0.82; in data set [5] it was 1.1; in data set [7] it was 1.65.

On to `c1ccc2nc(-c3nc(-c4ccc5nc[nH]c5c4)no3)ccc2c1`, for which the fold change (FC) in data set [1] came out at 16.9; in data set [2] it was 6.61; in data set [3], 2.04; in data set [4] it was 1.61; in data set [5] it was 4.35; in data set [6] it was 7.09. Further, in data set [7], the fold change (FC) was determined as 20.5. Moreover, the Activity result in data set [8] is recorded as “Non-toxic”.

With `Cn1cnc2ccc(-c3noc(-c4ccccc4)n3)cc21`, the fold change (FC) in data set [1] came out at 8.41; in data set [2], 3.33; in data set [3], 3.41; in data set [4], 2.03; in data set [5] it was 18.2; in data set [6], 1.75. In addition, the fold change (FC) in data set [7] turned out to be 17.4. The Activity result in data set [8] is recorded as “Non-toxic”.

With `Oc1ccccc1-c1nc(-c2ccc3nc[nH]c3c2)no1`, the fold change (FC) came to 2.75 in data set [1]; 1.34 in data set [2]; 1.54 in data set [3]; 1.72 in data set [4]; 1.53 in data set [5]; 1.17 in data set [6]. Besides, the fold change (FC) in data set [7] stood at 2.67. The Activity entry in data set [8] is “Non-toxic”.

`COc1ccc(-c2nc(-c3ccc4nc[nH]c4c3)no2)c(OC)c1`: the fold change (FC) in data set [1] came to 11.6; in data set [2], 4.35; in data set [3], 1.59; in data set [4] it was 1.25; in data set [5], 2.84; in data set [6], 1.46. The fold change (FC) in data set [7] came to 8.57. Further, the Activity entry in data set [8] is “Non-toxic”.

On to `CC(C)(C)C1=CC(=O)C=CC1=O`, for which the fold change (FC) in data set [1] amounted to 2.14; in data set [2], 5.27; in data set [3], 1.25; in data set [4], 1.18; in data set [5], 1.24; in data set [6], 8.46. For the same molecule, in data set [7], the fold change (FC) came out at 1.41.
